ChEMBL document CHEMBL1140656, “Design, synthesis, and evaluation of 3,4-disubstituted pyrazole analogues as anti-tumor CDK inhibitors” (Bioorg Med Chem Lett, 2007)

How the values were obtained:
[1] = Inhibition of CDK1/cyclin B; set-up: species or system Homo sapiens
Aurora kinase A = biological target: T1, Aurora kinase A (Homo sapiens, UniProt O14965); assay: Inhibition of aurora-A
T1 sequence (O14965 whole entry): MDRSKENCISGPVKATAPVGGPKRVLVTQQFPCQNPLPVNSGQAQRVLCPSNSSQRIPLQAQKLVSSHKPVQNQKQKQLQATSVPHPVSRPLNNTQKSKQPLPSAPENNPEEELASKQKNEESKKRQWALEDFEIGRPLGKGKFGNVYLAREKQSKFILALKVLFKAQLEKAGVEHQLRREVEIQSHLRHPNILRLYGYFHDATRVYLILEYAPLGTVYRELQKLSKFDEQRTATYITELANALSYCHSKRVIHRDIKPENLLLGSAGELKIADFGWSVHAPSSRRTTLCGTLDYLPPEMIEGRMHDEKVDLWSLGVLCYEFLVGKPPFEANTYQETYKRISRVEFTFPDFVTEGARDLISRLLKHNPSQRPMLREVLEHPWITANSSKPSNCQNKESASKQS

HeLa = assay: Antiproliferative activity against human HeLa cells; assay type: functional, cell-based
[2] = biological target: Receptor tyrosine-protein kinase erbB-2 (Homo sapiens, UniProt P04626); assay: Inhibition of HER2
Chain of Receptor tyrosine-protein kinase erbB-2 (P04626 whole entry): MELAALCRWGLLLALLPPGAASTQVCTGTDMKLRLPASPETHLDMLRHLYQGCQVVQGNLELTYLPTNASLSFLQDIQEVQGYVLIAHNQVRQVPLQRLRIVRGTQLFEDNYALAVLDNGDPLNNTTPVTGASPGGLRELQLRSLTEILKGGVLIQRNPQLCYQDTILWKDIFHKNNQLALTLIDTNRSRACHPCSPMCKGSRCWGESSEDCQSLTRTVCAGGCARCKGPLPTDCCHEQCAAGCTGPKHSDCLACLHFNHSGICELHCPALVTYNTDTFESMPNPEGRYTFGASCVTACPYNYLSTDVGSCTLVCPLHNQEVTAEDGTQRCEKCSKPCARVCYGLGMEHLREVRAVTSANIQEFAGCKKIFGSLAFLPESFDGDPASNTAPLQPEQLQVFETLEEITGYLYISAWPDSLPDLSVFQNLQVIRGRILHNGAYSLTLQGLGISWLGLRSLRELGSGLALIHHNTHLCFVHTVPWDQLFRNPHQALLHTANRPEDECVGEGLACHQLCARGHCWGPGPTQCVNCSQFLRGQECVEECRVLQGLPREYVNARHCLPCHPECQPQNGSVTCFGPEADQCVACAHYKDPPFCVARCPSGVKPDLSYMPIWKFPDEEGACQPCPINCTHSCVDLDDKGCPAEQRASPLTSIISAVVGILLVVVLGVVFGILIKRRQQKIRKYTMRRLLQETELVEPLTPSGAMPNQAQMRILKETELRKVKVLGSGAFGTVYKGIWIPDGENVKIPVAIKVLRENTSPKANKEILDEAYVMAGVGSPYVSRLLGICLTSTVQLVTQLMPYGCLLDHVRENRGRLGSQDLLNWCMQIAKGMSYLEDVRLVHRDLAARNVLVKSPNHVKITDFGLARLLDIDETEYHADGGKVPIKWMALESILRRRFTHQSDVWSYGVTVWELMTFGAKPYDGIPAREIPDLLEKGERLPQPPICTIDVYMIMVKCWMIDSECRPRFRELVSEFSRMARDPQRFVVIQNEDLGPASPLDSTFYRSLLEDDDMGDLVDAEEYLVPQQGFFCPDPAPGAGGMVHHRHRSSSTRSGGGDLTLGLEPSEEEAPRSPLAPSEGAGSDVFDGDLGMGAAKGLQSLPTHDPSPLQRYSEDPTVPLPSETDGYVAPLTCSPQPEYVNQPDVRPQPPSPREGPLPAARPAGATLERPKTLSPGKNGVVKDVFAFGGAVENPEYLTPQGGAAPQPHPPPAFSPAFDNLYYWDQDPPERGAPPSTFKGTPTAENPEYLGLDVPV

A-375 = assay: Antiproliferative activity against human A375 cells; assay type: functional, cell-based
HCT-116 = assay: Antiproliferative activity against human HCT116 cells; assay type: functional, cell-based
[3] = biological target: Vascular endothelial growth factor receptor 2 (Homo sapiens, UniProt P35968); assay: Inhibition of VEGFR2
Chain of Vascular endothelial growth factor receptor 2 (P35968 whole entry): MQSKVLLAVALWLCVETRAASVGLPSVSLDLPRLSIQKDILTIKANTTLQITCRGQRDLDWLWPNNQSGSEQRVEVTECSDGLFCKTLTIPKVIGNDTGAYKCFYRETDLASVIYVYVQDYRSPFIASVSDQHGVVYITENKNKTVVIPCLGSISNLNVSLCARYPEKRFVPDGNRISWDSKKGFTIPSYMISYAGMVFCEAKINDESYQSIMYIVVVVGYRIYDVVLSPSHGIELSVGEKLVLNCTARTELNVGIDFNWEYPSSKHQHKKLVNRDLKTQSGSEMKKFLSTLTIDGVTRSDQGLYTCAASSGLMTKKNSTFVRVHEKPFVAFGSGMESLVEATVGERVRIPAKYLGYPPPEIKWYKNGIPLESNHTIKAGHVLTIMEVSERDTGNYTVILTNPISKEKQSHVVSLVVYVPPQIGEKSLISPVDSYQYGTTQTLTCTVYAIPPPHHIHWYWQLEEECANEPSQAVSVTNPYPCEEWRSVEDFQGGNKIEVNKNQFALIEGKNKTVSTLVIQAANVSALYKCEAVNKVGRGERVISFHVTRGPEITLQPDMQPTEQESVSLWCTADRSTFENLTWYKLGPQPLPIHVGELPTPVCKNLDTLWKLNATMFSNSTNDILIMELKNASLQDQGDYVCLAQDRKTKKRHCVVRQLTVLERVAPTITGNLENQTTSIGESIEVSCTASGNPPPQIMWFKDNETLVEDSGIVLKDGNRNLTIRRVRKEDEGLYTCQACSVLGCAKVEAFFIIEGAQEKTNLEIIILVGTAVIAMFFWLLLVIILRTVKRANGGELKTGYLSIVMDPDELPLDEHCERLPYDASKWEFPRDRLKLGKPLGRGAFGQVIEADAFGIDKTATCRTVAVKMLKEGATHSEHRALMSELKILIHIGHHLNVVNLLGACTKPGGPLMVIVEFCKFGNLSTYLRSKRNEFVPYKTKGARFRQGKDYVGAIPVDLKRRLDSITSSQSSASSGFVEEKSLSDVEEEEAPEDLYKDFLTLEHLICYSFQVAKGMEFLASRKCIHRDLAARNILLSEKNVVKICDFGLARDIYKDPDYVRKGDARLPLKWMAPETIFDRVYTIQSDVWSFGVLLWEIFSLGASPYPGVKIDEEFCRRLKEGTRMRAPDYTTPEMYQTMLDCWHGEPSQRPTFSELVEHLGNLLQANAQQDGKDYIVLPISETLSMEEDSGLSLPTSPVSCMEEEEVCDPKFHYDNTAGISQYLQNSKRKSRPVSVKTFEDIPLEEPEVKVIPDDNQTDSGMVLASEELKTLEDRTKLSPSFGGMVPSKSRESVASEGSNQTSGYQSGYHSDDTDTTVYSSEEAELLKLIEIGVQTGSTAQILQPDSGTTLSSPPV

| Structure (SMILES) | IC50 [1] [µM] | IC50 (Aurora kinase A) [µM] | IC50 (HeLa) [µM] | IC50 [2] [µM] | IC50 (A-375) [µM] | IC50 (HCT-116) [µM] | IC50 [3] [µM] |
| --- | --- | --- | --- | --- | --- | --- | --- |
| CCNCc1cncc(/C=C/c2c[nH]nc2-c2nc(C(F)(F)F)c[nH]2)c1 | 0.018 | > 10 | 3.2 | > 100 | 7.4 | 1.7 | 10 |
| FC(F)(F)c1c[nH]c(-c2n[nH]cc2/C=C/c2cccnc2)n1 | 0.48 | 0.12 | > 10 | > 100 | 47 | 24 | 29 |
| FC(F)(F)c1c[nH]c(-c2n[nH]cc2/C=C/c2cncc3ccccc23)n1 | 0.11 | 0.3 | 3.6 |  | 5.6 | 2.9 | 3.06 |
| CN1CCN(c2ccc3nc(-c4n[nH]cc4/C=C/c4cccnc4)[nH]c3c2)CC1 | 0.029 | > 10 | 0.46 |  | 0.86 | 0.19 | 0.29 |
| N#Cc1c[nH]c(-c2n[nH]cc2/C=C/c2cccnc2)n1 | 0.7 | > 10 | > 10 | > 100 | > 10 | 70.7 | > 10 |
| COc1ccc2nc(-c3n[nH]cc3/C=C/c3cncc4ccccc34)[nH]c2c1 | 0.15 | 0.53 | 2.8 | > 100 | 3 | 2.7 | 0.61 |

Further lines, results first:

| IC50 [1] [µM] | IC50 (Aurora kinase A) [µM] | IC50 (HeLa) [µM] | IC50 [2] [µM] | IC50 (A-375) [µM] | IC50 (HCT-116) [µM] | IC50 [3] [µM] | Structure (SMILES) |
| --- | --- | --- | --- | --- | --- | --- | --- |
| 0.16 | 0.55 | 2.8 | > 10 | 4.3 | 3.2 | 0.76 | COc1ccc2nc(-c3n[nH]cc3/C=C/c3cnccc3C)[nH]c2c1 |
| 0.047 | 0.4 | 0.89 |  | 0.91 | 0.75 | 0.65 | COc1cncc(/C=C/c2c[nH]nc2-c2nc3ccc(OC)cc3[nH]2)c1 |
| 0.11 | > 100 | 3.7 |  | 3.6 | 2.5 | 1.35 | CCNC(=O)c1cncc(/C=C/c2c[nH]nc2-c2nc3ccc(OC)cc3[nH]2)c1 |
| 0.0046 | 0.59 | 0.62 |  | 0.55 | 0.19 | 0.82 | CCNCc1cncc(/C=C/c2c[nH]nc2-c2nc3ccc(OC)cc3[nH]2)c1 |
| > 1 | 4.2 |  | > 100 |  |  | 1.7 | COc1ccc2nc(-c3n[nH]cc3/C=C/c3cncc(C#N)c3)[nH]c2c1 |
| 0.89 | > 100 | 4.4 | > 100 | 3.1 | 3.1 | 1.28 | COC(=O)c1cncc(/C=C/c2c[nH]nc2-c2nc3ccc(OC)cc3[nH]2)c1 |
| 0.033 | 0.51 | 1.8 | > 10 | 2.5 | 2.2 | 0.97 | COc1ccc2nc(-c3n[nH]cc3/C=C/c3cccnc3)[nH]c2c1 |
